The results in this text go back to publication PMC6934184, “Selective DNA-PKcs inhibition extends the therapeutic index of localized radiotherapy and chemotherapy” (The Journal of Clinical Investigation, 2019).

The assay has as its target T1, ACVRL1 (ALK1) (Homo sapiens, UniProt P37023).
T1 construct: purchased Thermo Fisher Scientific (Life Technologies) SelectScreen
As to the kind of experiment: SelectScreen LanthaScreen. It counts as binding. As to conditions: read-out: % displacement. Summed up:
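SelectScreen broad panel; activity (Z'LYTE, Adapta) plus binding formats. ATP: Km app for CSF1R Z'LYTE; 10 for CAMK1 Adapta. Readout = % per kinase.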
(In general: In TR-FRET formats the signal depends on donor and acceptor labels being close together.)

The structures appear in SMILES notation.

T1 sequence (P37023 22-503): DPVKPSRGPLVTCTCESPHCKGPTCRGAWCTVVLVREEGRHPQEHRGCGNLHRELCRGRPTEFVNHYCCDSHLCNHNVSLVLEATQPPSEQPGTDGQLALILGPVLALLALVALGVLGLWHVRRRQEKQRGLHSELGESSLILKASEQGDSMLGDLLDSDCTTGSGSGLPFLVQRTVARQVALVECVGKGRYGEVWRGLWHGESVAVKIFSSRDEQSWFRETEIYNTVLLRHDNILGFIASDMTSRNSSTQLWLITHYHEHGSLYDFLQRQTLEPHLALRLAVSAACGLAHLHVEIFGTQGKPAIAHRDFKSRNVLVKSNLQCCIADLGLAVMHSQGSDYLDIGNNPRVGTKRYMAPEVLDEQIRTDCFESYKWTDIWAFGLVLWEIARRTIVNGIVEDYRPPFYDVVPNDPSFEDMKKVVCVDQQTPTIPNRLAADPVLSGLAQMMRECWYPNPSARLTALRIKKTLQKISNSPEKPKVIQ

`CN(C(=O)CN1CCOCC1)c1ccc2sc3c(-c4cccc5c(=O)cc(N6CC7CCC(C6)O7)oc45)cccc3c2c1` [NU5455]: the inhibition at 1 µM amounted to 2.3%.
